In patent US20090169585A1, “Resveratrol-Containing Compositions And Their Use In Modulating Gene Product Concentration Or Activity” (Resveratrol Partners, LLC, priority 2003, published 2009):
Where two headings read alike, the source gives them in different places.

Experiments:
rhabdomyosarcoma cells = conditions: low dosage; cited from earlier work
injected tumors = conditions: mice with injected tumors; cited from earlier work
[1] = test system: human umbilical vein epithelial cells; conditions: of 10,000 genes probed; cited from earlier work
[2] = test system: genes of the oxidative phosphorylation pathway (GO:0006119); test: Cardiac gene expression array: oxidative phosphorylation genes; type: in vivo, mice; conditions: mouse cardiac tissue vs control
[3] = test system: genes involved in 220 biological processes; test: Biochemical pathways / biological processes affected (Table 5); type: in vivo, mice
[4] = test system: expression of 20,341 genes in brain tissue; test: Gene expression in brain tissue; type: in vivo, mice
breast cancer cells = conditions: cited from earlier work
[5] = 1100 IU, 4-year period; cited from earlier work
[6] = 2000 IU per day; cited from earlier work
[7] = 3500 IU per day; cited from earlier work

O=P(O)(O)OC1C(OP(=O)(O)O)C(OP(=O)(O)O)C(OP(=O)(O)O)C(OP(=O)(O)O)C1OP(=O)(O)O (centres unmarked) [IP6, (2,3,4,5,6-pentaphosphonooxycyclohexyl) dihydrogen phosphate]
suppression of growth of rhabdomyosarcoma cells (rhabdomyosarcoma cells): 50% | tumor size vs non-treated mice (injected tumors): 50 times smaller

COc1cc(/C=C/C(=O)O)ccc1O [ferulic acid]
genes with greater than 2-fold down-regulation [1]: 363 genes | genes with greater than 2-fold up-regulation [1]: 233 genes

O=c1c(O)c(-c2ccc(O)c(O)c2)oc2cc(O)cc(O)c12 [quercetin, 3,3′,4′,5,7-pentahydroxy-2-phenylchromen-4-one]
genes with greater than 2-fold down-regulation [1]: 363 genes | genes with greater than 2-fold up-regulation [1]: 233 genes

Oc1ccc(/C=C/c2cc(O)cc(O)c2)cc1 [resveratrol, 3,4′,5-trihydroxy-trans-stilbene]
FC Cox4i2 [2]: 1.50 | FC Ndufaf1 [2]: −1.20 | FC Ndufc1 [2]: 1.20 | FC Ndufc2 [2]: −1.30 | FC Ndufs2 [2]: 1.10 | Genes changed: Telomere Maintenance ([3]; GO: 0000723, 17 genes in series, P<0.05): 3 | Genes changed: Endochondral Ossification ([3]; GO: 0001958, 8 genes in series, P<0.05): 2 | Genes changed: Carbohydrate Metabolic Process ([3]; GO: 0005975, 316 genes in series, P<0.05): 21 | Genes changed: Polysaccharide Metabolic Process ([3]; GO: 0005976, 42 genes in series, P<0.05): 9 | Genes changed: Glycogen Metabolic Process ([3]; GO: 0005977, 31 genes in series, P<0.05): 7 | Genes changed: Generation Of Precursor Metabolites And Energy ([3]; GO: 0006091, 390 genes in series, P<0.05): 24 | Genes changed: Energy Reserve Metabolic Process ([3]; GO: 0006112, 35 genes in series, P<0.05): 7 | Genes changed: DNA Repair ([3]; GO: 0006281, 178 genes in series, P<0.05): 13 | Genes changed: Transcription Termination ([3]; GO: 0006353, 6 genes in series, P<0.05): 2 | Genes changed: Translation ([3]; GO: 0006412, 338 genes in series, P<0.05): 25 | Genes changed: Translational Initiation ([3]; GO: 0006413, 40 genes in series, P<0.05): 6 | Genes changed: Regulation Of Translational Initiation ([3]; GO: 0006446, 20 genes in series, P<0.05): 4 | Number of genes affected: Protein Folding ([3]; GO: 0006457, 124 genes in series, P<0.05): 13 | Genes changed: Ubiquitin-Dependent Protein Catabolic Process ([3]; GO: 0006511, 109 genes in series, P<0.05): 9 | Genes changed: Ubiquitin Cycle ([3]; GO: 0006512, 356 genes in series, P<0.05): 27 | Genes changed: Polyamine Biosynthetic Process ([3]; GO: 0006596, 5 genes in series, P<0.05): 2 | Genes changed: Protein Targeting ([3]; GO: 0006605, 161 genes in series, P<0.05): 12 | Genes changed: Protein Targeting To Peroxisome ([3]; GO: 0006625, 5 genes in series, P<0.05): 2 | Genes changed: Copper Ion Transport ([3]; GO: 0006825, 9 genes in series, P<0.05): 3 | Genes changed: Intracellular Protein Transport ([3]; GO: 0006886, 357 genes in series, P<0.05): 26 | Genes changed: ER To Golgi Vesicle-Mediated Transport ([3]; GO: 0006888, 16 genes in series, P<0.05): 3 | Genes changed: Caspase Activation ([3]; GO: 0006919, 16 genes in series, P<0.05): 3 | Genes changed: Response To DNA Damage Stimulus ([3]; GO: 0006974, 217 genes in series, P<0.05): 15 | Genes changed: ER Overload Response ([3]; GO: 0006983, 5 genes in series, P<0.05): 2 | Number of genes affected: Organelle Organization And Biogenesis ([3]; GO: 0006996, 897 genes in series, P<0.05): 53 | Number of genes affected: Cytoskeleton Organization And Biogenesis ([3]; GO: 0007010, 403 genes in series, P<0.05): 26 | Genes changed: Microtubule-Based Process ([3]; GO: 0007017, 155 genes in series, P<0.05): 12 | Number of genes affected: Microtubule-Based Movement ([3]; GO: 0007018, 72 genes in series, P<0.05): 9 | Genes changed: Mitotic Metaphase/Anaphase Transition ([3]; GO: 0007091, 8 genes in series, P<0.05): 2 | Genes changed: Female Meiosis ([3]; GO: 0007143, 8 genes in series, P<0.05): 2 | Genes changed: Transmembrane Receptor Protein Serine/Threonine Kinase Signaling Pathway ([3]; GO: 0007178, 75 genes in series, P<0.05): 7 | Genes changed: Small Gtpase Mediated Signal Transduction ([3]; GO: 0007264, 320 genes in series, P<0.05): 22 | Number of genes affected: Regulation Of Actin Polymerization And/Or Depolymerization ([3]; GO: 0008064, 30 genes in series, P<0.05): 4 | Genes changed: Protein Localization ([3]; GO: 0008104, 663 genes in series, P<0.05): 38 | Number of genes affected: Actin Polymerization And/Or Depolymerization ([3]; GO: 0008154, 39 genes in series, P<0.05): 6 | Genes changed: Isoprenoid Biosynthetic Process ([3]; GO: 0008299, 19 genes in series, P<0.05): 3 | Genes changed: RNA Splicing ([3]; GO: 0008380, 162 genes in series, P<0.05): 12 | Genes changed: Biosynthetic Process ([3]; GO: 0009058, 979 genes in series, P<0.05): 60 | Genes changed: Macromolecule Biosynthetic Process ([3]; GO: 0009059, 525 genes in series, P<0.05): 35 | Genes changed: Protein Transport ([3]; GO: 0015031, 581 genes in series, P<0.05): 38 | Genes changed: Modification-Dependent Protein Catabolic Process ([3]; GO: 0019941, 111 genes in series, P<0.05): 9 | Number of genes affected: Actin Filament Polymerization ([3]; GO: 0030041, 17 genes in series, P<0.05): 3 | Number of genes affected: Regulation Of Actin Filament Length ([3]; GO: 0030832, 31 genes in series, P<0.05): 4 | Genes changed: Cellular Response To Stress ([3]; GO: 0033554, 14 genes in series, P<0.05): 3 | Genes changed: Positive Regulation Of Enzyme Activity ([3]; GO: 0043085, 40 genes in series, P<0.05): 5 | Genes changed: Positive Regulation Of Caspase Activity ([3]; GO: 0043280, 17 genes in series, P<0.05): 3 | Genes changed: Regulation Of Caspase Activity ([3]; GO: 0043281, 27 genes in series, P<0.05): 5 | Genes changed: Cellular Biosynthetic Process ([3]; GO: 0044249, 710 genes in series, P<0.05): 45 | Genes changed: Cellular Carbohydrate Metabolic Process ([3]; GO: 0044262, 221 genes in series, P<0.05): 18 | Genes changed: Establishment Of Protein Localization ([3]; GO: 0045184, 610 genes in series, P<0.05): 38 | Genes changed: Interferon Type I Biosynthetic Process ([3]; GO: 0045351, 6 genes in series, P<0.05): 2 | Genes changed: Cell Redox Homeostasis ([3]; GO: 0045454, 40 genes in series, P<0.05): 6 | Genes changed: Regulation Of B Cell Differentiation ([3]; GO: 0045577, 8 genes in series, P<0.05): 2 | Genes changed: Positive Regulation Of JNK Cascade ([3]; GO: 0046330, 8 genes in series, P<0.05): 2 | Number of genes affected: Intracellular Transport ([3]; GO: 0046907, 523 genes in series, P<0.05): 43 | Genes changed: Golgi Vesicle Transport ([3]; GO: 0048193, 37 genes in series, P<0.05): 6 | Genes changed: Epithelial Cell Proliferation ([3]; GO: 0050673, 30 genes in series, P<0.05): 4 | Number of genes affected: Regulation Of Catalytic Activity ([3]; GO: 0050790, 241 genes in series, P<0.05): 21 | Genes changed: Barbed-End Actin Filament Capping ([3]; GO: 0051016, 17 genes in series, P<0.05): 3 | Number of genes affected: Protein Polymerization ([3]; GO: 0051258, 32 genes in series, P<0.05): 6 | Number of genes affected: Establishment Of Cellular Localization ([3]; GO: 0051649, 653 genes in series, P<0.05): 45 | biological processes with affected genes ([3]; resveratrol to calorie restricted mice): failed to affect any genes in any of these processes | share of the 220 biological processes with affected genes ([3]; this treatment, P<0.05): 10% | number of genes exhibiting altered expression ([4]; animals receiving only this treatment, P<0.01): 424 genes | number of genes exhibiting altered expression ([4]; resveratrol and calorie reduced diet): 10 genes

C=C1CC[C@H](O)C/C1=C/C=C1\CCC[C@]2(C)[C@@H]([C@H](C)CCCC(C)C)CC[C@@H]12 [vitamin D3, cholecalciferol]
reduction of the number of breast cancer cells (breast cancer cells; higher concentrations of vitamin D3 alone, lab dish): about 25% | reduction of the number of breast cancer cells (breast cancer cells; higher concentrations of vitamin D3 combined with resveratrol): 50% | breast tumor cell growth (breast cancer cells; low-dose vitamin D3 alone): does not reduce breast tumor cell growth | decline of tumor cell numbers (breast cancer cells; low-dose vitamin D3 combined with resveratrol): 40% | reduction in cancer risk [5]: 60-77%

vitamin D
risk of colon cancer [6]: halved | risk for breast cancer [7]: halved
